The values that follow come from patent US20160168118A1, “N-(5-QUINOLIN-6-YL)PYRIDIN-3-YL) BENZSULFAMIDE DERIVATIVES, PREPARATION METHOD AND THERAPEUTIC USE THEREOF” (SECOND MILITARY MEDICAL UNIVERSITY, PLA, priority 2012, published 2016).

The subject of one data set is five human tumor cells. In words: MTT assay, five human tumor cells (summary in words). It counts as cell-based. Particulars: A549, HCT116, HepG2, ZR-75-30, U87MG. How it is done:
(§1) 1. Sample preparation: After dissolved with DMSO (Merck), PBS (−) was added to make 1000 μg/ml solution or a uniform suspension, and then diluted with PBS (−) containing the DMSO. Doxorubicin (DOX) was used as the positive control drug.
(§2) 2. Cell Line • 1) A549 (human lung cancer cells); 2) HCT116 (human colon cancer cells); 3) HepG2 (human hepatoma cells); 4) ZR-75-30 (human breast cancer cells); 5) U87MG (human brain star glioblastoma)
(§3) DMEM+5-10% FBS+double resistant
(§4) MTT assay. 100 μl cell suspension was added at a concentration of 4˜5×10^4 cells/ml to each well of a 96-well plate, and was set at 37° C., 5% CO2 in the incubator. After 24 h, the sample solution was added, 10 μl/hole, double wells were set, 37° C., acting for 72 h at 5% CO2. […] of 5 mg/ml was added to each well, the dissolving liquid was added after acted for 4 h, 100 μl/hole, kept in the incubator, and read 570 nm OD with MK-2 automatic microplate reader after dissolution.
On the technique in general: Tetrazolium dyes change colour on reduction, which living cells bring about.

The next data set deals with PI3K delta (Homo sapiens, UniProt O00329). In words: Kinase-Glo Luminescent Kinase Assay, PI3K delta. It counts as biochemical. Background: Kinase-Glo measures the ATP left after a reaction by luminescence.
Sequence of PI3K delta (O00329 whole entry): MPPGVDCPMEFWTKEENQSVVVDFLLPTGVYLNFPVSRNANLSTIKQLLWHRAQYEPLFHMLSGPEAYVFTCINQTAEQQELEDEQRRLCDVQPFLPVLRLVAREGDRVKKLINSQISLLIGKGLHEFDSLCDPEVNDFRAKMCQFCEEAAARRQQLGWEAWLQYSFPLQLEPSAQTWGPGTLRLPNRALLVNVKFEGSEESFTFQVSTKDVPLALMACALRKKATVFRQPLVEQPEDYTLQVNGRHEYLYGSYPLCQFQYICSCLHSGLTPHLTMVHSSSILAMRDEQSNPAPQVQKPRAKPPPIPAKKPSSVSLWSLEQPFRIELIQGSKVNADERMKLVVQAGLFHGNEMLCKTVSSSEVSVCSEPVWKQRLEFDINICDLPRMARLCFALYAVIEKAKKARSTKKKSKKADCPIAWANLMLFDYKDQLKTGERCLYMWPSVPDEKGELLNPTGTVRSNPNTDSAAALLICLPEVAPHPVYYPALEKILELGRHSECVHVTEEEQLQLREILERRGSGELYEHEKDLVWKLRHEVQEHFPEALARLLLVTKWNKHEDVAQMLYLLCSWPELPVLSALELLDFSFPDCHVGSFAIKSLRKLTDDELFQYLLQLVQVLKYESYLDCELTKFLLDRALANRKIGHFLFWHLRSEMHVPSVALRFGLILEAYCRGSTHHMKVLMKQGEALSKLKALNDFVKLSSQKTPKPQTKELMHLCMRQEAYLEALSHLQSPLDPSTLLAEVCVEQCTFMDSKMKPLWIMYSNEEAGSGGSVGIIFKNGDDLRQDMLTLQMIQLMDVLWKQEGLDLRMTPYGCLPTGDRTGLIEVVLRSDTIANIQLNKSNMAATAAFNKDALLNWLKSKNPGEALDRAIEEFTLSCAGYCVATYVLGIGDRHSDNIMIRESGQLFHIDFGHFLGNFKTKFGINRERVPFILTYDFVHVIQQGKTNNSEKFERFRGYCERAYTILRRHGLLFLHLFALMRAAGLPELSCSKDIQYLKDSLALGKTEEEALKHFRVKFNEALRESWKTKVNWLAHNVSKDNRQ
Sequence of PI3K delta (P27986 whole entry partner): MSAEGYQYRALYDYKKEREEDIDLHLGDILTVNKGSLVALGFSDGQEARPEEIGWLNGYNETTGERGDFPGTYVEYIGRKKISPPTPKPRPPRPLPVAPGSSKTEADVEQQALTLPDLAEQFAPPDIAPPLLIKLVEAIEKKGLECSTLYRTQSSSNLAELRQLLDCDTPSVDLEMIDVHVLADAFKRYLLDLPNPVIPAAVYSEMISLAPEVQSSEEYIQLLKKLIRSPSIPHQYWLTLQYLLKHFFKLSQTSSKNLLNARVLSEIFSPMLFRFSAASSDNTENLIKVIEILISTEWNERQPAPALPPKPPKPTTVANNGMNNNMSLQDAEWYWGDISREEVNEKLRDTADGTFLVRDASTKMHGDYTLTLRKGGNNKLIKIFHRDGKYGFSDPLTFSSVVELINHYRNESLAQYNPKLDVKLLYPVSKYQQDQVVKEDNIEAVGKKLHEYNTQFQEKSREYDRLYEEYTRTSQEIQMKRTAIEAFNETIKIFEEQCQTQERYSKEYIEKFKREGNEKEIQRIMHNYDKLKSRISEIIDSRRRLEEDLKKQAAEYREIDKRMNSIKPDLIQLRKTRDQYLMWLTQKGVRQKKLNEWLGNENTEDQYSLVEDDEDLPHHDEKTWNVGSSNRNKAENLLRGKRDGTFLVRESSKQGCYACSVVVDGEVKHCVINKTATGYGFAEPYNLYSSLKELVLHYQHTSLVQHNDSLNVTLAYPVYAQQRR
Data set [1] has as its system U87MG (human brain star glioblastoma). The experiment in a line: MTT assay, U87MG. It counts as cell-based. Particulars: U-87 MG, 72 h. How it is done:
as §1, §2, §3, §4

The subject of another data set is OVCAR3. In words: NCI cytotoxicity test, OVCAR3. The settings on record: Homo sapiens, OVCAR-3. Format: cell-based. From the text: (§5) Cytotoxicity Test of Compound 9, 10 and 17 on 60 Kinds of Human Cancer Cell Lines from the US National Cancer Institute
Another data set has as its target PI3Kγ (Homo sapiens, UniProt P48736). The experiment in a line: ADP-Glo Luminescent Kinase Assay, PI3Kγ. Format: biochemical. The settings on record: read-out: IC50 on PI3K gamma. Background: ADP-Glo first removes unused ATP, then detects ADP through luciferase.
Another data set deals with PI3Kβ (Homo sapiens, UniProt P42338). The experiment in a line: ADP-Glo Luminescent Kinase Assay, PI3Kβ. It counts as biochemical. The settings on record: read-out: IC50 on PI3K beta.
Sequence of PI3Kβ (P42338 whole entry, species assumed): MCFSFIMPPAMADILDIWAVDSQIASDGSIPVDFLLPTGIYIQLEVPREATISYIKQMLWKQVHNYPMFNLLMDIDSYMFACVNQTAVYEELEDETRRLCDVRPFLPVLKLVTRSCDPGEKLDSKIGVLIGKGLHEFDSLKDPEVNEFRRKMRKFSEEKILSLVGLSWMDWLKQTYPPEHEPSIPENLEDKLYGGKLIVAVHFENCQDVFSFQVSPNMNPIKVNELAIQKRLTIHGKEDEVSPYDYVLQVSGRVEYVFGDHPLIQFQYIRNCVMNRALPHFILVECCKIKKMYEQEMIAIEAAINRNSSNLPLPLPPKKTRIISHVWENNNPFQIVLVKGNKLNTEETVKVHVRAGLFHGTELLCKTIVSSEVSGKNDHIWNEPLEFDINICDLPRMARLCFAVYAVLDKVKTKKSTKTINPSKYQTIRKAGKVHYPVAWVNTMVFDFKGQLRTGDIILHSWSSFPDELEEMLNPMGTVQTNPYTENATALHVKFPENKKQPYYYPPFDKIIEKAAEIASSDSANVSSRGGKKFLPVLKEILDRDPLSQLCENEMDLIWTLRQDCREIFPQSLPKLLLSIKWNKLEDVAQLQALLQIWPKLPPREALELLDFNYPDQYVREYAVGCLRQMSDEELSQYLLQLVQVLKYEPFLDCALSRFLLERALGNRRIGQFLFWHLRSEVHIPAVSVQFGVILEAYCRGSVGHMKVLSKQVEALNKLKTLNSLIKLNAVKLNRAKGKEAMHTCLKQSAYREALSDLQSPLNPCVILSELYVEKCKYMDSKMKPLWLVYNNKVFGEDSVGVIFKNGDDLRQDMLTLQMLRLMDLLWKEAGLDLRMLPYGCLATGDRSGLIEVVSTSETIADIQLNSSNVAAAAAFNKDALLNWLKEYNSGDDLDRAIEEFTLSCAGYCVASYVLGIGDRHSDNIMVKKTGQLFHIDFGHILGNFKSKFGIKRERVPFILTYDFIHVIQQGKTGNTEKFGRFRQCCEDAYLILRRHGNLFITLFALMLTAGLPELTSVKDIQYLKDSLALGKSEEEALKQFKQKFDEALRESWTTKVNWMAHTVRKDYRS
Sequence of PI3Kβ (P27986 whole entry partner, species assumed): as the sequence (P27986 whole entry partner) above
For data set [2], the system named is A549 (human lung cancer cells). In words: MTT assay, A549. Format: cell-based. The settings on record: 72 h. How it is done:
as §1, §2, §3, §4

The test system of another data set is SF539. In words: NCI cytotoxicity test, SF539. It counts as cell-based. The settings on record: Homo sapiens, SF-539.
Source text: as §5

The next data set has as its target mTOR (Homo sapiens, UniProt P42345). In words: Lance Ultra Assay, mTOR. Format: biochemical.
Another data set has as its system SN12C. The experiment in a line: NCI cytotoxicity test, SN12C. It counts as cell-based. The settings on record: Homo sapiens.
Source text: as §5

Another data set has as its system PC3. The experiment in a line: NCI cytotoxicity test, PC3. Format: cell-based. The settings on record: Homo sapiens, PC-3.
Source text: as §5

The next data set relates to COLO205. In words: NCI cytotoxicity test, COLO205. It counts as cell-based. The settings on record: Homo sapiens, COLO 205.
Source text: as §5

The test system of another data set is MCF7. In words: NCI cytotoxicity test, MCF7. It counts as cell-based. Particulars: Homo sapiens.
Source text: as §5

A further data set concerns A549. In words: NCI cytotoxicity test, A549. It counts as cell-based. Particulars: Homo sapiens.
Source text: as §5

Data set [3] has as its system HCT116 (human colon cancer cells). In words: MTT assay, HCT116. It counts as cell-based. Particulars: HCT-116, 72 h.
The target of a further data set is PI3Kα (Homo sapiens, UniProt P42336). In words: Kinase-Glo Luminescent Kinase Assay, PI3Kα. Format: biochemical.
Sequence of PI3Kα (P42336 whole entry, species assumed): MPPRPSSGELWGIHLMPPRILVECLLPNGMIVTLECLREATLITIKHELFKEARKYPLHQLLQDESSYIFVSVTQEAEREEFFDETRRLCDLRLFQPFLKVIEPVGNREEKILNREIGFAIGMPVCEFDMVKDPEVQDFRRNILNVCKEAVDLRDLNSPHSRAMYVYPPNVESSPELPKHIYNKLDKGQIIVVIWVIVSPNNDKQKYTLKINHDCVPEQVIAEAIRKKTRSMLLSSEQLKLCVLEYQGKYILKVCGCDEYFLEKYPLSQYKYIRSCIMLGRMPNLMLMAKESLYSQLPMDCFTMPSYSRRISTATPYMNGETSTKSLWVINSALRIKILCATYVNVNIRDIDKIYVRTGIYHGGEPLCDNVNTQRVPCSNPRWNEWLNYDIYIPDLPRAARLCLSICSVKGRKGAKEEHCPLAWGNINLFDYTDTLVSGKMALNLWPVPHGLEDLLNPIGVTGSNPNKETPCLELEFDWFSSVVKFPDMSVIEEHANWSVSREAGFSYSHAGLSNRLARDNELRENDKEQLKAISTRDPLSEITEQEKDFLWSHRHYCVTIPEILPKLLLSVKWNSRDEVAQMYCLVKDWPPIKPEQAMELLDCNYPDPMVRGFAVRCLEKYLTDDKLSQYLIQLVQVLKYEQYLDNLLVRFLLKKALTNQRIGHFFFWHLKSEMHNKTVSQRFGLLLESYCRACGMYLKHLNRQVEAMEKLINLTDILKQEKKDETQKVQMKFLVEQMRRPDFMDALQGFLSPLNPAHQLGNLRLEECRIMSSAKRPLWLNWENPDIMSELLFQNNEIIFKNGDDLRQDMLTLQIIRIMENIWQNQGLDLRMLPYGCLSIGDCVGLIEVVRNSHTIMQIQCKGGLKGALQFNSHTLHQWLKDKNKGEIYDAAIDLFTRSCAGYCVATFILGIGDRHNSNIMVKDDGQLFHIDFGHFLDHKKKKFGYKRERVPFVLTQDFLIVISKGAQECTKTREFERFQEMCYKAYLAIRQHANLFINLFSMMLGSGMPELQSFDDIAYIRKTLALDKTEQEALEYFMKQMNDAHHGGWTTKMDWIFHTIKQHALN
Sequence of PI3Kα (P27986 whole entry partner, species assumed): as the sequence (P27986 whole entry partner) above
Data set [4] deals with 60 kinds of human cancer cell lines. In words: Cytotoxicity test on 60 kinds of human cancer cell lines from the US National Cancer Institute. Format: cell-based.
Source text: as §5

The test system of data set [5] is human lung carcinoma A549 xenografts. In words: In vivo efficacy on human lung carcinoma A549 xenografts in nude mice. Further details: species or system BALB/C nude mice. Particulars: ig, GSK2126458 3 mg/kg, compound 9 10 mg/kg. From the text:
Strain: BALB/C nude mice (SPF grade), Source: Shanghai Slac laboratory animal limited liability company, the production license number: SCXK (Shanghai) 2007-0005, the using license number: SYXK (Shanghai) 2009-0068, gender: male, weight: 18-20 g, the number of animals per group: 6.
A549 solid tumors which were well-grown were taken, cut to uniform bits of about 3 mm size under aseptic condition, every bit was inoculated to each mouse subcutaneously in the right armpit with trocar, and randomly divided into three groups, each treatment was:
1) Control (saline), gavage, the dose 25 ml/kg, 14 days;
3) Compound 9, gavage, the dose 10 mg/kg, 14 days;
Regrouped according to tumor size on the 13th day after inoculation, the animals of which tumor size is too large and too small were eliminated, the average tumor volume of each group are basically the same. Administration was carried out according to the above regimen; the dosing volume was 0.5 ml/20 g body weight. The axis (a), shorter diameter (b) of tumor was measured 2 times a week with an electronic digital caliper, calculate formula of tumor volume (tumor volume, TV) is as follows: TV=1/2×a×b2, calculate formula of relative tumor volume (relative tumor volume, RTV), is as follows: RTV=Vt/Vo, wherein Vo is the tumor volume measured at the time when dividing cages (i.e. dl), Vt is the tumor volume measured each time. […] T test was conducted. Animals were sacrificed 30 days after inoculation, dissected and the tumor mass were taken, tumor weight was measured.

A short description of data set [6]: Solubility test in buffer solution at pH=1. It counts as physicochemical. The settings on record: pH=1 buffer solution, simulated gastric fluid, thermodynamic from solid; buffer solution pH=1. The protocol: Compound 9 1.02 mg was precisely weighed and placed in 1.5 mL of EP tube, and 10 uL pH=1 buffer solution was added, vortexed for 30S and ultrasonic for 20 min. There was a lot of visible turbidity after that.
20 uL buffer was added and ultrasounded and the solution was found still turbid. Turbidity reduced after the solution was diluted to 1 mL and vortexed, while there still exist residual after diluted to 2 mL.

The mark [7] stands for this setting: on the 60 kinds of tumor cells, read-out: Average GI50.

Molecules are shown by their SMILES. pIC50: −log10 of the molar value. Converted amounts (≈) assume the structure as drawn. Read-outs that look alike come from different tables or passages of the source.

Sequence of PI3Kγ (P48736 whole entry, species assumed): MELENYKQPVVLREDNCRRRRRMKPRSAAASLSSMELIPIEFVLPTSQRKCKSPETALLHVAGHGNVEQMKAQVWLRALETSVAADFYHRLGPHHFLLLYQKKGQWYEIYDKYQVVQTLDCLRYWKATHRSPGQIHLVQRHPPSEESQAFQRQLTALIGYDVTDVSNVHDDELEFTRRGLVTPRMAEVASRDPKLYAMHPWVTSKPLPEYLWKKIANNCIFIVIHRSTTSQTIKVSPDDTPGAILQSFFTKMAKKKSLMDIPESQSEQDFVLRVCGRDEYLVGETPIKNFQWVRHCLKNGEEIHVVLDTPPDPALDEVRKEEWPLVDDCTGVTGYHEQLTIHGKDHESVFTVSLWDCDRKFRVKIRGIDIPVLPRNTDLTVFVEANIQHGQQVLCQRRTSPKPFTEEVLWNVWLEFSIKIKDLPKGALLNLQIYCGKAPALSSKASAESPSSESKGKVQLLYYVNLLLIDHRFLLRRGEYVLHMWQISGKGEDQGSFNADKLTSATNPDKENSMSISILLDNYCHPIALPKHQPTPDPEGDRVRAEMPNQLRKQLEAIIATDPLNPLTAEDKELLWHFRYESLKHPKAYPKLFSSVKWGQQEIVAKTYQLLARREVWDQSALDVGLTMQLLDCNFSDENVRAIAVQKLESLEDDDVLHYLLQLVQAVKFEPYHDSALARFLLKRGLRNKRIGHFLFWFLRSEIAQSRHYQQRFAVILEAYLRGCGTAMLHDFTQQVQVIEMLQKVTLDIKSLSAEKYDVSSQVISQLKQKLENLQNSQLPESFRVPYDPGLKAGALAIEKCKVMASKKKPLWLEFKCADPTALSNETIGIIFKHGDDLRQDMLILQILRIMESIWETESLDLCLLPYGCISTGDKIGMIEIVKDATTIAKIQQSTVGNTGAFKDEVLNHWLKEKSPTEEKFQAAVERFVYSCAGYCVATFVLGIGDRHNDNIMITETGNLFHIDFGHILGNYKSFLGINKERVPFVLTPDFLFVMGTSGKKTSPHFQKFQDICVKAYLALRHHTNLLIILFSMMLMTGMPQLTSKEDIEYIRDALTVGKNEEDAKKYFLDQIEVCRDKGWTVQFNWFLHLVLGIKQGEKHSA

As usually defined, the pIC50 is the negative decadic logarithm of the IC50, by convention in mol/L. For orientation: IC50 means the midpoint of a concentration-inhibition curve. A low value points to higher potency. Usually melting point stands for the temperature, or range, at which the solid turns liquid. Consider `COc1ncc(-c2ccc3nccc(-c4ccc(Cn5cncn5)cc4)c3c2)cc1NS(=O)(=O)c1ccc(F)cc1F` [Compound 10, N-(5-(4-(4-((1H-1,2,4-triazole-1-yl)methyl)phenyl)quinolin-6-yl)-2-methoxypyridine-3-yl)-2,4-difluorobenzenesulfonamide], for which the melting point was 121 to 123 °C. Besides, the “in vitro proliferation inhibition (in words)” value in the data set on five human tumor cells is listed as “high in vitro proliferation inhibition”. The negative logarithm of the IC50 (pIC50) on PI3K delta was 8.55. The molecule further yielded an IC50 in data set [1] of 0.129 µg/mL (≈ 0.221 µM). In addition, the GI50 in the data set with OVCAR3 was below 10 nM. In addition, the pIC50 at PI3Kγ is 9.13. In addition, the pIC50 at PI3Kβ is 8.77. Besides, the IC50 in data set [2] worked out at 0.00927 µg/mL (≈ 0.0159 µM). Moreover, in the data set with SF539, the GI50 was below 10 nM. Besides, the pIC50 against mTOR is 8.96. The molecule also came in with a GI50 in the data set with SN12C below 10 nM. In the data set with PC3, the GI50 is below 10 nM. In the data set on COLO205, the GI50 was below 10 nM. Besides, the GI50 in the data set on MCF7 is below 10 nM. This molecule registered a GI50 with A549 below 10 nM. For the same molecule, the IC50 in data set [3] was 0.00507 µg/mL (≈ 0.00867 µM). The molecule also gave a negative logarithm of the IC50 (pIC50) on PI3Kα of 9.19. Moreover, the GI50 in data set [4] (on the 36 tumor cell lines, read-out: average half growth inhibitory concentration (GI50)) is below 10 nM. Also, in data set [4] (setting [7]), the GI50 was 15.1 nM.

Molecule `COc1ncc(-c2ccc3nccc(-c4ccc(CN(C)CCO)cc4)c3c2)cc1NS(=O)(=O)c1ccc(F)cc1F` [Compound 17, N-(5-(4-(4-(((2-hydroxyethyl)(methyl)amino)methyl)phenyl)quinolin-6-yl)-2-methoxypyridine-3-yl)-2,4-difluorobenzenesulfonamide] gave a melting point of 84 to 85 °C. Moreover, the “in vitro proliferation inhibition (in words)” value with five human tumor cells is given as “high in vitro proliferation inhibition”. Moreover, at PI3K delta, the pIC50 is 8.47. This molecule displayed an IC50 in data set [1] of 0.092 µg/mL (≈ 0.156 µM). Also, the GI50 in the data set with OVCAR3 is below 10 nM. Further, the pIC50 at PI3Kγ is 8.96. Besides, the negative logarithm of the IC50 (pIC50) at PI3Kβ is 8.96. In data set [2], this molecule gave an IC50 of 0.012 µg/mL (≈ 0.0203 µM). Further, the GI50 in the data set on SF539 is below 10 nM. For the same molecule, on mTOR, the pIC50 was 8.66. Moreover, the GI50 in the data set on SN12C was below 10 nM. Moreover, in the data set with PC3, the GI50 was below 10 nM. In the data set on COLO205, the GI50 is below 10 nM. Moreover, the GI50 with MCF7 is below 10 nM. The molecule also gave a GI50 in the data set with A549 below 10 nM. This molecule showed an IC50 in data set [3] of 0.0028 µg/mL (≈ 0.00474 µM). In addition, the pIC50 on PI3Kα was 9.23. Also, the GI50 in data set [4] (on the 38 tumor cell lines, read-out: average half growth inhibitory concentration (GI50)) is below 10 nM. Also, the GI50 in data set [4] (setting [7]) stood at 15.8 nM.

For orientation: solubility means the dissolved amount per volume that the medium holds. A higher solubility goes with much dissolved substance. Take `COc1ncc(-c2ccc3nccc(-c4ccnnc4)c3c2)cc1NS(=O)(=O)c1ccc(F)cc1F` [GSK2126458, reference compound]: the IC50 was 0.537 µg/mL (≈ 1.06 µM) in data set [1] and 0.014 µg/mL (≈ 0.0277 µM) in [2]. Moreover, the pIC50 at PI3Kγ was 9.21. Also, in data set [5], the “Tumor Inhibition rate %” value was determined as 65.93%. Also, in data set [5] (at end), the “Animal wight (g) (tumor removed)” value is on record as 21.41 ± 1.49 g. Further, the “RTV (d18) x ± SD” value in data set [5] (d18) turned out to be 6.91 ± 1.97. In [6], this molecule had a solubility at 20 min of 200 µg/mL (≈ 396 µM).
